Source: EP0182609A2, “Polycyclic biocidal compounds, their synthesis, formulations containing them” (THE WELLCOME FOUNDATION LIMITED, priority 1984, dated 1986)
Like-named read-outs stand apart in the source and are kept apart here.

Tests used:
[1] = LD20 determined in the P388/0 test; format: in vivo
Procedure: (§1) CD2-F1 mice, of the same sex, weighing 20t3g are used for this test. Control and test animals are injected intraperitoneally with a suspension of -10^6 viable P388/0 tumor cells on day 0. In each test several dose levels which bracket the LD20 for the compound are evaluated; each dose level group contains 6 animals. The test compounds are prepared either in physiologic saline containing 0.05% Tween 80 or distilled water containing 5% dextrose and are administered intraperitoneally on days 1, 5, and 9 relative to tumor implant. Doses are on a mg/kg basis according to individual animals' body weights. The day of death for each animal is recorded, the median identified for each group and the ratios of median survival time for treated (T)/control (C) groups are calculated. The criterion for activity is T/C x 100 >120%.

P388/0 tumor cells = test: Lymphocytic Leukemia P388/0 Test; format: in vivo, CD2-F1 mice; details: for Optimal Dose: intraperitoneally on days 1, 5, and 9 relative to tumor implant; for T/C x 100% (Excluding 30 Day survivors): median survival time treated/control at optimal dose, i.p. days 1, 5, and 9, criterion for activity >120%
Excerpt: Methods for evaluating the antitumour activity of these compounds are essentially those used in the Tumor Panel by the Developmental Therapeutics Program, Division of Cancer Treatment, National Cancer institute, A. Goldin, et al., Methods in Cancer Research, Vol. XVI, p. 165, Academic Press (1979). Some modifications, in dose level and schedule have been made to increase the testing efficiency.
as §1

Saccharomyces cerevisiae = test: In vitro antifungal activity, minimum fungistatic concentration; format: cell-based; details: read-out: Minimum Fungistatic Concentration
Procedure: The minimum fungistatic concentrations of compounds of the formula (I) against various fungi were obtained using standard techniques. The tests were carried out in either medium A or medium B (see below) and the standard used in each instance was Miconazole nitrate.

[2] = intraperitoneally on days 1, 5, and 9, tumor-bearing mice

| Structure (SMILES) | LD20 [1, 2] [mg/kg] | Optimal Dose (P388/0 tumor cells) [mg/kg] | T/C x 100% (Excluding 30 Day survivors) (P388/0 tumor cells) | LD20 ([1]; mouse, in vivo, ip) [mg/kg] | MIC (Saccharomyces cerevisiae) [µg/mL] | MIC (Saccharomyces cerevisiae; medium A or medium B) [µg/mL] |
| --- | --- | --- | --- | --- | --- | --- |
| CC(CO)(CO)NCc1c2ccccc2cc2c1ccc1ccccc12 [Example 1, 2-((7-Benz[a]anthracenylmethyl)amino)-2-methyl-1,3-propanediol methanesulfonate] | 180 | 220 | +270% |  |  |  |
| CC(CO)(CO)NCc1c2ccccc2c2ccc3cccc4ccc1c2c43 [Example 2, 2-[(Benzo[a]pyren-6-ylmethyl)amino]-2-methyl-1,3-propanediol methanesulfonate] | 100 | 111 | +204% |  |  |  |
| CC(CO)(CO)NCc1c2ccccc2cc2cc3ccccc3cc12 [Example 3C, 2-[(5-naphthacenylmethyl)amino]-2-methyl-1,3-propanediol methanesulfonate] |  | 60 | +195% | 50 |  |  |
| CC(CO)(CO)NCc1c2c(cc3ccccc13)Cc1ccccc1-2 [Example 4B, 2-[(11H-Benzo[b]fluoren-5-ylmethyl)amino]-2-methyl-1,3-propanediol methanesulfonate] |  | 225 | +280% | 300 |  |  |
| CC(CO)(CO)NCc1cc2ccc3ccccc3c2c2ccccc12 [Example 5B, 2[(Benzo[c]phenanthren-5-ylmethyl)amino]-2-methyl-1,3-propanediol methanesulfonate] | 10 | 15 | +140% |  | ≤ 0.4 |  |
| CC(CO)(CO)NCc1c2ccccc2c(Cl)c2cc3ccccc3cc12 [Example 6B, 2-[(12-Chloro-5-naphthacenylmethyl)amino]-2-methyl-1,3-propanediol methanesulfonate] |  | 75 | +150% | 70 |  |  |
| CC(CO)(CO)NCc1c2ccccc2c(Cl)c2cc3ccccc3cc12.Cl [Example 6C, 2-[(12-chloro-5-naphthacenylmethyl)amino]-2-methyl-1,3-propanediol hydrochloride] | 70 | 40 | +150% |  |  |  |
| Clc1ccc(COC(Cn2ccnc2)c2ccc(Cl)cc2Cl)c(Cl)c1 (centres unmarked) [Miconazole Nitrate, Miconazole nitrate, reference compound] |  |  |  |  |  | ≤ 0.4 |
